This experiment concerns the target T1, Recombinant CETP enzyme (Homo sapiens, UniProt P11597).
T1 construct: purchased Cardiovascular Targets
T1 sequence (P11597 18-493): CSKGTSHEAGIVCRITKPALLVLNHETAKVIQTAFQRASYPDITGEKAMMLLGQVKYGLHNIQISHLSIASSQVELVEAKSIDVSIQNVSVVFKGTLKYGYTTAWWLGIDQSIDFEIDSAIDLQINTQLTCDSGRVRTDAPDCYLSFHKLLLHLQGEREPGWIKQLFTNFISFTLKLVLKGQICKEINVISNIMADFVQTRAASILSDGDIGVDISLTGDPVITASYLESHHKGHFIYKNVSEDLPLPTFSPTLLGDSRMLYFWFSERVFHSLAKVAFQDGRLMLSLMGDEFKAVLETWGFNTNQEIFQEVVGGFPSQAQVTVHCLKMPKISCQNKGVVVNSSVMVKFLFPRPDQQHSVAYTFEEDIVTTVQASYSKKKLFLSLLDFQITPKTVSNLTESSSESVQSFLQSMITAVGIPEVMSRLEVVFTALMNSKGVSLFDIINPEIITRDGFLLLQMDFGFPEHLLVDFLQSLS
Description: In vitro fluorescence-based CETP inhibition assay (BODIPY-CE transfer from donor to acceptor microemulsions). The following applies: recombinant CETP 0.14 ng/μl; transfer of fluorescent cholesteryl ester monitored over 2 hours; vs DMSO controls. Format: biochemical. Here is the method: An in vitro fluorescence-based assay to identify CETP inhibitors was developed from modifications of the protocols outlined in Bisgaier et al., J Lipid Res., 34(9): 1625-34 (1993) and Epps et al., Chem Phys Lipids., 77(1): 51-63 (1995). Acceptor and donor lipid microemulsions were prepared according to Bisgaier et al., 1993, except that the buffer was prepared with 0.67 ug/mL human HDL (Calbiochem). Donor microemulsions contained the fluorescent cholesteryl ester analog BODIPY-CE (Molecular Probes), characterized by excitation and emission maxima at 503 nm and 518 nm, respectively. The CETP-mediated transfer of fluorescent cholesteryl ester to acceptor particles was monitored over a 2-hour time period using the FAM filter set (excitation 492 nm, emission 516 nm) in an MX3000P fluorescent plate reader (Stratagene). Recombinant CETP enzyme (Cardiovascular Targets) was used at 0.14 ng/μl, final concentration, to achieve lipid transfer. CETP inhibition by compounds was compared to DMSO controlsand graphed as a percentage of the control CETP activity over 2 hours. The IC50 curves for CETP inhibition were generated from the activity profiles. Active compounds were also tested for CETP inhibition as above, but in the presence of 3% human serum albumin, fraction V (Calbiochem).

pIC50: −log10 of the molar value.

A word on the pIC50: it is the IC50 on a negative log10 scale, so that one unit is a factor of ten.

For the compound `CCN(CC1CCC1)c1nc2c(cnn2CC2CC2)cc1CN(Cc1cc(C(F)(F)F)cc(C(F)(F)F)c1)c1nnn(C)n1` [Example 101, (5-{[(3,5-bis-trifluoromethyl-benzyl)-(2-methyl-2H-tetrazol-5-yl)-amino]methyl}-1-cyclopropylmethyl-1H-pyrazolo[3,4-b]pyridin-6-yl)-cyclobutylmethyl-ethyl-amine], the pIC50 was at least 6.00. Regarding `Cn1nnc(N(Cc2cc(C(F)(F)F)cc(C(F)(F)F)c2)Cc2cc3cccc(Cl)c3nc2N(CC2CC2)CC2CC2)n1` [Example 90], the pIC50 is at least 6.00. As for `CCN(CC1CCCC1)c1nc2ccccc2cc1CN(Cc1cc(C(F)(F)F)cc(C(F)(F)F)c1)c1nc(C)co1` [Example 67], the pIC50 is at least 6.00. With `CCN(CC1CCC1)c1nc2c(cc1CN(Cc1cc(C(F)(F)F)cc(C(F)(F)F)c1)c1nnn(C)n1)c(C)nn2C` [Example 1, (5-{[(3,5-bis-trifluoromethyl-benzyl)-(2-methyl-2H-tetrazole-5-yl)-amino]-methyl}-1,3-dimethyl-1H-pyrazolo[3,4-b]pyridin-6-yl)-cyclobutylmethyl-ethyl-amine] the figure was at least 6.00. Take `CCCN(CC1CCCC1)c1nc2ccccc2cc1CN(Cc1cc(C(F)(F)F)cc(C(F)(F)F)c1)C(=O)OCC` [Example 43, (3,5-bis-trifluoromethyl-benzyl)-[2-(cyclopentylmethyl-propyl-amino)-quinolin-3-ylmethyl]-carbamic acid ethyl ester]: the pIC50 was at least 5.30.

For the compound `Cc1cc(N(Cc2cc(C(F)(F)F)cc(C(F)(F)F)c2)Cc2cc3c(C)nn(C)c3nc2N(CC2CC2)CC2CC2)no1` [Example 11, (5-{[(3,5-bis-trifluoromethyl-benzyl)-(5-methyl-isoxazol-3-yl)-amino]-methyl}-1,3-dimethyl-1H-pyrazolo[3,4-b]pyridin-6-yl)-bis-cyclopropylmethyl-amine], the pIC50 is at least 6.00. Under `CCN(CC1CCCC1)c1nc2ccccc2cc1CN(Cc1cc(C(F)(F)F)cc(C(F)(F)F)c1)c1ncccn1` [Example 66, (3-{[(3,5-bis-trifluoromethyl-benzyl)-pyrimidin-2-yl-amino]-methyl}-quinolin-2-yl)-cyclopentylmethyl-ethyl-amine] stands at least 5.30; under `CCN(CC1CCC1)c1nc2c(cnn2C)cc1CN(Cc1cc(C(F)(F)F)cc(C(F)(F)F)c1)c1nnn(C)n1` [Example 12, (5-{[(3,5-bis-trifluoromethyl-benzyl)-(2-methyl-2H-tetrazol-5-yl)-amino]-methyl}-1-methyl-1H-pyrazolo[3,4-b]pyridin-6-yl)-cyclobutylmethyl-ethyl-amine], at least 6.00. With `CCN(CC1CCCC1)c1nc2c(cc1CN(Cc1cc(F)cc(C(F)(F)F)c1)c1nnn(C)n1)c(C)nn2C` [Example 20, cyclopentylmethyl-ethyl-(5-{[(3-fluoro-5-trifluoromethyl-benzyl)-(2-methyl-2H-tetrazol-5-yl)-amino]-methyl}-1,3-dimethyl-1H-pyrazolo[3,4-b]pyridin-6-yl)-amine] the figure was at least 6.00. Under `CCN(CC1CCCC1)c1nc2c(cc1CN(Cc1cc(C(F)(F)F)cc(C(F)(F)F)c1)C(=O)OC)CCC2` [Example 75, (3,5-bis-trifluoromethyl-benzyl)-[2-(cyclopentylmethyl-ethyl-amino)-6,7-dihydro-5H-[1]pyridin-3-ylmethyl]-carbamic acid methyl ester] stands at least 5.30; under `Cc1nn(C)c2nc(N(CC3CC3)CC3CC3)c(CN(Cc3cc(C(F)(F)F)cc(C(F)(F)F)c3)c3nnn(C)n3)cc12` [Example 2, (5-{[(3,5-bis-trifluoromethyl-benzyl)-(2-methyl-2H-tetrazole-5-yl)-amino]-methyl}-1,3-dimethyl-1H-pyrazolo[3,4-b]pyridin-6-yl)-bis-cyclopropylmethyl-amine], at least 6.00. Regarding `CCN(CC1CCCC1)c1nc2c(cc1CN(Cc1cc(C(F)(F)F)cc(C(F)(F)F)c1)C(=O)OC)CCCC2` [Example 74], the pIC50 was at least 6.00. Under `CCN(CC1CCC1)c1nc2ccccc2cc1CN(Cc1cc(C(F)(F)F)cc(C(F)(F)F)c1)c1cc(C)on1` [Example 65, (3-{[3,5-bis-trifluoromethyl-benzyl-(5-methyl-isoxazol-3-yl)-amino]-methyl}-quinolin-2-yl)-cyclobutylmethyl-ethyl-amine] stands at least 6.00. With `CCN(CC1CCC1)c1nc2c(cc1CN(Cc1cc(C(F)(F)F)cc(C(F)(F)F)c1)c1cc(C)on1)c(C)nn2C` [Example 10, (5-{[(3,5-bis-trifluoromethyl-benzyl)-(5-methyl-isoxazol-3-yl)-amino]-methyl}-1,3-dimethyl-1H-pyrazolo[3,4-b]pyridin-6-yl)-cyclobutylmethyl-ethyl-amine] the figure was at least 6.00.

As for `CCN(CC1CCCC1)c1nc2ccccc2cc1CN(Cc1cc(C(F)(F)F)cc(C(F)(F)F)c1)C(=S)SC` [Example 48, (3,5-bis-trifluoromethyl-benzyl)[2-(cyclopentylmethyl-ethyl-amino)-quinolin-3-ylmethyl]-dithiocarbamic acid methyl ester], the pIC50 was at least 5.30. In the case of `CCN(CC1CC1)c1nc2ccccc2cc1CN(Cc1cc(C(F)(F)F)cc(C(F)(F)F)c1)C(=O)OC` [Example 44, (3,5-bis-trifluoromethyl-benzyl)-[2-(cyclopropylmethyl-ethyl-amino)-quinolin-3-ylmethyl]-carbamic acid methyl ester], the pIC50 is at least 5.30. With `CCN(CC1CC1)c1nc2c(cc1CN(Cc1cc(C(F)(F)F)cc(C(F)(F)F)c1)c1nnn(C)n1)c(C)nn2C` [Example 3, (5-{[(3,5-bis-trifluoromethyl-benzyl)-(2-methyl-2H-tetrazole-5-yl)-amino]-methyl}-1,3-dimethyl-1H-pyrazolo[3,4-b]pyridin-6-yl)-cyclopropylmethyl-ethyl-amine] the figure was at least 6.00; with `CCN(CC1CCCC1)c1nc2ccccc2cc1CN(Cc1cc(C(F)(F)F)cc(C(F)(F)F)c1)c1ccccn1` [Example 69, (3-{[(3,5-bis-trifluoromethyl-benzyl)-pyridin-2-yl-amino]-methyl)-quinolin-2-yl)-cyclopentylmethyl-ethyl-amine], at least 5.30. Take `CCN(CC1CCCC1)c1nc2c(cc1CN(Cc1cc(C(F)(F)F)cc(C(F)(F)F)c1)c1nnc(C)o1)CCCC2` [Example 78, (3-{[3,5-bis-trifluoromethyl-benzyl)-(5-methyl-[1,3,4oxadiazol-2-yl)-amino]-methyl}-5,6,7,8-tetrahydroquinoline-2-yl)-cyclopentylmethyl-ethyl-amine]: the pIC50 was at least 6.00.

As to `CCCCN(CC)c1nc2ccccc2cc1CN(Cc1cc(C(F)(F)F)cc(C(F)(F)F)c1)C(=O)OCC` [Example 41, (3,5-bis-trifluoromethyl-benzyl)-[2-(butyl-ethyl-amino)-quinolin-3-ylmethyl]-carbamic acid ethyl ester], the pIC50 was at least 5.30. Under `Cc1nn(C)c2nc(N(CC3CC3)C(=O)C3CC3)c(CN(Cc3cc(C(F)(F)F)cc(C(F)(F)F)c3)c3nnn(C)n3)cc12` [Example 27, cyclopropanecarboxylic acid (5-{[(3,5-bis-trifluoromethyl-benzyl)-(2-methyl-2H-tetrazol-5-yl)-amino]-methyl}-1,3-dimethyl-1H-pyrazolo[3,4-b]pyridin-6-yl)-cyclopropylmethyl-amide] stands at least 6.00; under `CCN(CC1CCCC1)c1nc2ccc(C)cc2cc1CN(Cc1cc(C(F)(F)F)cc(C(F)(F)F)c1)C(=O)OC` [Example 46, (3,5-bis-trifluoromethyl-benzyl)-[2-(cyclopentylmethyl-ethyl-amino)-6-methyl-quinolin-3-ylmethyl]-carbamic acid methyl ester], at least 5.30; under `CCN(CC1CCCC1)c1nc2ccccc2cc1CN(Cc1cc(C(F)(F)F)cc(C(F)(F)F)c1)Cc1nnnn1C` [Example 71, (3-{[(3,5-bis-trifluoromethyl-benzyl)-(1-methyl-1H-tetrazol-5-ylmethyl)-amino]-methyl}-quinolin-2-yl)-cyclopentylmethyl-ethyl-amine], at least 5.30. Turning to `CCn1ncc2cc(CN(Cc3cc(C(F)(F)F)cc(C(F)(F)F)c3)c3nnn(C)n3)c(N(CC3CC3)CC3CC3)nc21` [Example 14, (5-{[(3,5-bis-trifluoromethyl-benzyl)-(2-methyl-2H-tetrazol-5-yl)-amino]-methyl}-1-ethyl-1H-pyrazolo[3,4-b]pyridin-6-yl)-bis-cyclopropylmethyl-amine], the pIC50 is at least 6.00.
